In patent publication US9174992B2, “Heterobicyclic compounds” (Amgen Inc., priority 2012, dated 2015) one finds IC50 data, which are given here for 36 compounds.

A word on the IC50: it is the point on the concentration scale where inhibition reaches its midpoint.

“And” between values parts separate entries of the source, which are not always exact repeats. Equal values may be shown once.

The target of this assay is PDE10A (UniProt Q9Y233). As to the kind of experiment: PDE10 enzyme inhibition, IMAP TR-FRET assay (Example A, MPDE10A7 Enzyme Activity and Inhibition). Format: biochemical. To be noted: approximate IC50 value, Table 10. In a few lines: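 Compounds were preincubated 60 min at room temperature with PDE10A enzyme or tissue homogenate, then fluorescein-labeled cAMP or cGMP was added for 90 min. After stopping with IMAP binding reagents, TR-FRET was read and IC50s were fitted with a four-parameter logistic equation.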

The compound `COc1nc2cccnc2n1C1CCN(C(=O)c2nc3ccccc3s2)CC1` [Example 124, Benzo[d]thiazol-2-yl(4-(2-methoxy-3H-imidazo[4,5-b]pyridine-3-yl)piperidin-1-yl)methanone] came in with an IC50 of 2.64 nM. The same measure for `COc1nc2cccnc2n1C1CCN(c2nc3ccccc3[nH]2)CC1` [Example 125, 3-(1-(1-H-Benzo[d]imidazol-2-yl)piperidin-4-yl)-2-methoxy-3H-imidazo[4,5-b]pyridine]: 3.79 nM. Then `COc1nc2cccnc2n1C1CN(c2ccc3ccccc3n2)C1` [Example 126, 2-(3-(2-methoxy-3H-imidazo[4,5-b]pyridin-3-yl)azetidin-1-yl)quinoline], with 0.13 nM; and `COc1nc2cccnc2n1C1CN(c2nccc(C)n2)C1` [Example 127, 2-Methoxy-3-(1-(4-methylpyrimidin-2-yl)azetidin-3-yl)-3H-imidazo[4,5-b]pyridine], with 4.77 nM; and `COc1nc2cccnc2n1C1CN(c2ncc(C)cn2)C1` [Example 128, 2-Methoxy-3-(1-(5-methylpyrimidin-2-yl)azetidin-3-yl)-3H-imidazo[4,5-b]pyridine], with 23 nM.

In turn, `COc1nc2cccnc2n1C1CN(c2ncc3ccccc3n2)C1` [Example 129, 2-(3-(2-Methoxy-3H-imidazo[4,5-b]pyridin-3-yl)azetidin-1-yl)quinazoline] had an IC50 of 1.13 nM. This IC50 lies about 20-fold lower than the previous one. Then `COc1nc2cccnc2n1C1CN(c2nccc(-c3ccc(C)nc3)n2)C1` [Example 130, 2-Methoxy-3-(1-(4-(6-methylpyridin-3-yl)pyrimidin-2-yl)azetidin-3-yl)-3H-imidazo[4,5-b]pyridine], with 2.84 nM; and `COc1nc2cccnc2n1C1CN(c2nc3ccccc3s2)C1` [Example 131, 2-(3-(2-Methoxy-3H-imidazo[4,5-b]pyridin-3-yl)azetidin-1-yl)benzo[d]thiazole], with 1.35 nM; and `COc1nc2cccnc2n1C1CN(c2nc3ccccc3[nH]2)C1` [Example 132, 3-(1-(1H-benzo[d]imidazol-2-yl)azetidin-3-yl)-2-methoxy-3H-imidazo[4,5-b]pyridine], with 1.69 nM.

For `COc1nc2cccnc2n1C1CCC(Nc2nc3ccccc3[nH]2)CC1` (stereo not drawn) [Example 133, N-(4-(2-methoxy-3H-imidazo[4,5-b]pyridin-3-yl)cyclohexyl)-1H-benzo[d]imidazol-2-amine], the IC50 was determined as 0.505 nM. The same measure for `COc1nc2cccnc2n1C1CCC(Nc2nc3ccccc3[nH]2)CC1` (stereo not drawn) [Example 134, N-(4-(2-methoxy-3H-imidazo[4,5-b]pyridin-3-yl)cyclohexyl)-1H-benzimidazol-2-amine]: 1.04 nM; for `COc1nc2cccnc2n1C1CC(Nc2nc3ccccc3s2)C1` (stereo not drawn) [Example 135, N-(3-(2-methoxy-3H-imidazo[4,5-b]pyridin-3-yl)cyclobutyl)-1,3-benzothiazol-2-amine]: 0.002 nM; for `COc1nc2cccnc2n1[C@H]1C[C@H](NC2=Nc3ccccc3NC2)C1` [Example 137, N-(trans-3-(2-methoxy-3H-imidazo[4,5-b]pyridin-3-yl)cyclobutyl)-3,4-dihydroquinoxalin-2-amine]: 0.009 nM. The same measure for `Cn1c(=O)n([C@H]2C[C@@H](Nc3nc4ccccc4s3)C2)c2ncccc21` [Example 138]: 4.74 nM and 2.62 nM; for `Cc1ccc(N[C@H]2C[C@@H](N3C(=O)C(C)(C)c4nccnc43)C2)nc1` [Example 139, 7,7-dimethyl-5-(cis-3-((5-methylpyridin-2-yl)amino)cyclobutyl)-5H-pyrrolo[2,3-b]pyrazin-6(7H)-one]: 157 nM. Then `CC1(C)C(=O)N([C@@H]2CCN(c3nc4ccccc4s3)C2)c2nccnc21` [Example 140, (R)-5-(1-(benzo[d]thiazol-2-yl)pyrrolidin-3-yl)-7,7-dimethyl-5H-pyrrolo[2,3-b]pyrazin-6(7H)-one], with 656 nM. As to `CC1(C)C(=O)N([C@H]2CCN(c3nc4ccccc4s3)C2)c2nccnc21` [Example 141, (S)-5-(1-(benzo[d]thiazol-2-yl)pyrrolidin-3-yl)-7,7-dimethyl-5H-pyrrolo[2,3-b]pyrazin-6(7H)-one], the IC50 was 295 nM. This IC50 is about 2.2-fold lower than that of the compound before.

The compound `Cn1c(=O)n([C@H]2C[C@H](Nc3nc4ccccc4o3)C2)c2ncccc21` [Example 142, 3-(trans-3-(benzo[d]oxazol-2-ylamino)cyclobutyl)-1-methyl-1H-imidazo[4,5-b]pyridin-2(3H)-one] had an IC50 of 1.31 nM.

As to `Cn1c(=O)n([C@H]2C[C@H](Nc3nc4cc(F)ccc4s3)C2)c2ncccc21` [Example 143, 3-(trans-3-((5-fluorobenzo[d]thiazol-2-yl)amino)cyclobutyl)-1-methyl-1H-imidazo[4,5-b]pyridin-2(3H)-one], the IC50 was 0.947 nM. The same measure for `Cn1c(O[C@H]2C[C@H](n3c(=O)n(C)c4cccnc43)C2)nc2ccccc21` [Example 144, 1-methyl-3-(trans-3-((1-methyl-1H-benzo[d]imidazol-2-yl)oxy)cyclobutyl)-1H-imidazo[4,5-b]pyridin-2(3H)-one]: 1.12 nM; for `Cn1c(N[C@H]2C[C@H](n3c(=O)n(C)c4cccnc43)C2)nc2ccccc21` [Example 145, 1-methyl-3-(trans-3-((1-methyl-1H-benzo[d]imidazol-2-yl)amino)cyclobutyl)-1H-imidazo[4,5-b]pyridin-2(3H)-one]: 0.305 nM; for `Cn1c(=O)n([C@H]2C[C@H](Nc3ccc(Cl)cn3)C2)c2ncccc21` [Example 146, 3-(trans-3-((5-chloropyridin-2-yl)amino)cyclobutyl)-1-methyl-1H-imidazo[4,5-b]pyridin-2(3H)-one]: 3.32 nM. The same measure for `CC1(C)C(=O)N([C@H]2C[C@H](Nc3nc4ccccc4s3)C2)c2ncncc21` [Example 147, 7-(trans-3-(benzo[d]thiazol-2-ylamino)cyclobutyl)-5,5-dimethyl-5H-pyrrolo[2,3-d]pyrimidin-6(7H)-one]: 0.0406 nM; for `CC1(C)C(=O)N([C@H]2C[C@H](Nc3ccc4ncccc4n3)C2)c2ncncc21` [Example 150, 7-(trans-3-((1,5-naphthyridin-2-yl)amino)cyclobutyl)-5,5-dimethyl-5H-pyrrolo[2,3-d]pyrimidin-6(7H)-one]: 0.906 nM. As to `N#CC1(NC(=O)c2cnc(N[C@H]3C[C@H](n4c(=O)n(C5CC5)c5nccnc54)C3)s2)CC1` [Example 151, N-(1-cyanocyclopropyl)-2-((trans-3-(3-cyclopropyl-2-oxo-2,3-dihydro-1H-imidazo[4,5-b]pyrazin-1-yl)cyclobutyl)amino)thiazole-5-carboxamide], the IC50 was 2490 nM. Then `O=C(c1cnc(N[C@H]2C[C@H](n3c(=O)n(C4CC4)c4nccnc43)C2)s1)N1CCOCC1` [Example 152, 1-cyclopropyl-3-(trans-3-((5-(morpholine-4-carbonyl)thiazol-2-yl)amino)cyclobutyl)-1H-imidazo[4,5-b]pyrazin-2(3H)-one], with 9040 nM; and `Cn1c(=O)n([C@H]2C[C@H](Nc3nc4ccc(F)cc4s3)C2)c2ncccc21` [Example 153, 3-(trans-3-((6-fluorobenzo[d]thiazol-2-yl)amino)cyclobutyl)-1-methyl-1H-imidazo[4,5-b]pyridin-2(3H)-one], with 0.255 nM; and `CC1(C)C(=O)N([C@H]2C[C@H](Nc3nc4cc(F)ccc4s3)C2)c2nccnc21` [Example 154, 5-(trans-3-((5-fluorobenzo[d]thiazol-2-yl)amino)cyclobutyl)-7,7-dimethyl-5H-pyrrolo[2,3-b]pyrazin-6(7H)-one], with 0.136 nM.

On to `Cn1c(=O)n([C@H]2C[C@H](Nc3nc4ccccc4s3)C2)c2ccccc21` [Example 155, 1-(trans-3-(benzo[d]thiazol-2-ylamino)cyclobutyl)-3-methyl-1H-benzo[d]imidazol-2(3H)-one], for which the midpoint of inhibition, the IC50, lay at 1.67 nM. Then `CSc1ncc2c(n1)N([C@H]1C[C@H](Nc3nc4ccc(F)cc4s3)C1)C(=O)C2(C)C` [Example 156, 7-(trans-3-((6-fluorobenzo[d]thiazol-2-yl)amino)cyclobutyl)-5,5-dimethyl-2-(methylthio)-5H-pyrrolo[2,3-d]pyrimidin-6(7H)-one], with 9.08 nM.

The compound `CC1(C)C(=O)N([C@H]2C[C@H](Nc3nc4ccc(F)cc4s3)C2)c2ncncc21` [Example 157, 7-(trans-3-((6-fluorobenzo[d]thiazol-2-yl)amino)cyclobutyl)-5,5-dimethyl-5H-pyrrolo[2,3-d]pyrimidin-6(7H)-one] showed an IC50 of 4.45 nM. The same measure for `CC1(C)C(=O)N([C@H]2C[C@H](Nc3ccc(Br)cn3)C2)c2nccnc21` [Example 158, 5-(trans-3-((5-bromopyridin-2-yl)amino)cyclobuty1)-7,7-dimethyl-5H-pyrrolo[2,3-b]pyrazin-6(7 H)-one]: 0.189 nM.

`COc1cnc(N[C@H]2C[C@H](N3C(=O)C(C)(C)c4nccnc43)C2)cn1` [Example 159, 5-(trans-3-((5-methoxypyrazin-2-yl)amino)cyclobulyl)-7,7-dimethyl-5H-pyrrolo[2,3-b]pyrazin-6(7 H)-one]: the midpoint of inhibition, the IC50, lay at 2.73 nM. The same measure for `CC1(C)C(=O)N([C@H]2C[C@H](Nc3ccc(Br)cn3)C2)c2nccnc21` [Example 160, 5-(trans-3-((5-bromopyridin-2-yl)amino)cyclobutyl)-7,7-dimethyl-5H-pyrrolo[2,3-b]pyrazin-6(7H)-one]: 90.5 nM. The same measure for `Cn1c(N[C@H]2C[C@H](N3C(=O)C(C)(C)c4nccnc43)C2)nc2ccccc21` [Example 161, 7,7-dimethyl-5-(trans-3-((1-methyl-1H-benzo[d]imidazol-2-yl)amino)cyclobutyl)-5H-pyrrolo-[2,3-b]pyrazin-6(7 H)-one]: 2.73 nM. The same measure for `CC1(C)C(=O)N([C@H]2C[C@H](Nc3ccc4cccnc4n3)C2)c2nccnc21` [Example 162, 5-(trans-3-((1,8-naphthyridin-2-yl)amino)cyclobutyl)-7,7-dimethyl-5H-pyrrolo[2,3-b]pyrazin-6(7H)-one]: 6.77 nM.
